Laboratory results: patent US20190292572A1, “Novel protic or phosphate-based ionic liquids useful for lignocellulosic processing” (priority 2016, published 2019)
Where two headings read alike, the source gives them in different places.

What was measured:
pH of ILs = assay type: physicochemical
[1] = Biomass pretreatment using PBIL: enzymatic saccharification glucose yield
[2] = IL pretreatment and saccharification of different feedstocks: eucalyptus; details: 3 h pretreatment (FIG. 4D)
Protocol: (§1) FIG. 4D. Effects of some parameters on the sugar yield: Biomass category. Normal operation conditions: pretreatment, 10 wt % SG loading, 90 wt % IL, 160° C., 0.5 h (3 h for ecucalyptus); saccharification, 10 wt % IL, 20 mg protein/g SG, 50° C., 72 h.
(§2) Thereafter, we explored the feasibilities of [EOA][OAc] for the pretreatment of different feedstocks including mixed feedstocks of SG and eucalyptus (1:1, w/w), eucalyptus (EU), and corn stover (CS).

[3] = Compositional analysis of switchgrass after IL pretreatment; design: species or system Panicum virgatum; details: higher temperature pretreatment vs untreated
Excerpt: Thus, compositional analysis of untreated, and pretreated SG with [EOA][OAc] at different temperatures and time was studied and the results were summarized in Table 4. Solid recovery refers to the mass percentage of biomass (dry weight) recovered from the original biomass load. After washing, 55-81% of the biomass was recovered. […] Untreated SG contained 29.6% glucan, 18.4% xylan and 20% acid insoluble lignin (entry 1). […] This trend was most obvious after pretreatment under higher temperature where lignin content was reduced by 77% (untreated: 20% vs. pretreated: 4.7%). […] IL are consistent with our previous report by using basic ILs such as [Ch][Lys] and [C2C1Im][Lys].^13
Compositional analysis of SG before and after pretreatment was performed using NREL acidolysis protocols (LAP) LAP-002 and LAP-005, which was described in our previous work.^13 In a typical process, 200 mg of biomass and 2 mL of 72 wt % H2SO4 were incubated at 30° C. while shaking at 300 rpm for 1 h. The solution was diluted to 4 wt % H2SO4 with 56 mL of DI water and autoclaved for 1 h at 121° C. […] Carbohydrate concentrations were determined from the filtrate using an Agilent HPLC 1200 Series equipped with a Bio-Rad Aminex HPX-87H column and a Refractive Index detector. […] Acid insoluble lignin was quantified gravimetrically from the solid after heating overnight at 105° C. […]

[4] = One-pot IL pretreatment and enzymatic saccharification (sugar yield); design: species or system Panicum virgatum; details: for yield of glucose / yield of xylose: 160 °C
Protocol: FIG. 3. Effect of IL type on the sugar yield (pretreatment: 10 wt % SG loading, 90 wt % IL, 140° C., 1 h, saccharification: 10 wt % IL, 10 mg protein per g switchgrass, 50° C., 72 h.
FIG. 4A. Effects of some parameters on the sugar yield: Biomass loading at pretreatment. Normal operation conditions: pretreatment, 10 wt % SG loading, 90 wt % IL, 160° C., 0.5 h (3 h for ecucalyptus); saccharification, 10 wt % IL, 20 mg protein/g SG, 50° C., 72 h.
FIG. 4B. Effects of some parameters on the sugar yield: Temperature/time. Normal operation conditions: pretreatment, 10 wt % SG loading, 90 wt % IL, 160° C., 0.5 h (3 h for ecucalyptus); saccharification, 10 wt % IL, 20 mg protein/g SG, 50° C., 72 h.
In a typical procedure, SG (100 mg) was mixed with ([EOA][OAc]) at a 10% biomass loading in a 15 mL capped glass pressure tube and pretreated in a convection oven at 160° C. for 0.5 h. Untreated raw SG (30-40 mesh) was used as a control. […] Enzymatic saccharification step was operated at 50° C. for 72 hrs with constant agitation on an Enviro Genie SI-1200 rotator platform (Scientific Industries, Inc., Bohemia, N.Y.). The loading of enzyme cocktails (9CTec2/HTec2, v/v) is 20 mg EP per g SG.

[5] = One-pot pretreatment and SSF (cellulosic ethanol production); design: species or system Panicum virgatum; details: for theoretical ethanol yield: SSF
Protocol: FIG. 6A. Process optimization of one-pot ethanol fermentation after [EOA][OAc] pretreatment. Effect of yeast loading on ethanol fermentation. Conditions: pretreatment, 40 wt % SG loading, 60 wt % IL, 160° C., 0.5 h; saccharification, 5 wt % IL, 20 mg protein/g SG, pH 5, 50° C., 24 h; fermentation, 37° C., 72 h.
FIG. 6B. Process optimization of one-pot ethanol fermentation after [EOA][OAc] pretreatment. Illustration of the glucose consumption and ethanol production during SSF. Conditions: pretreatment, 40 wt % SG loading, 60 wt % IL, 160° C., 0.5 h; saccharification, 5 wt % IL, 20 mg protein/g SG, pH 5, 50° C., 24 h; fermentation, 37° C., 72 h.
FIG. 7. Illustration of the glucose consumption and ethanol production during SSF. Conditions: pretreatment, 40 wt % SG loading, 60 wt % IL, 160° C., 0.5 h; saccharification, 5 wt % IL, 20 mg protein/g SG, 50° C., 24 h; fermentation, 37° C., 72 h.
In a typical procedure, SG (100 mg) was mixed with ([EOA][OAc]) at a 40% biomass loading in a 15 mL capped glass pressure tube and pretreated in a convection oven at 160° C. for 0.5 h. After pretreatment, the pretreated slurry was diluted with DI-water to obtain a final IL concentration of 5 wt %, and pre-saccharificated for 24 h under the same aforementioned conditions. Simultaneously, wide type yeast strain BY4741 was prepared. After the addition of yeast strain, the SSF step was conducted for 72 hrs.

[6] = IL pretreatment and saccharification of different feedstocks: corn stover; details: corn stover (FIG. 4D)
Protocol: as §1, §2

[7] = IL pretreatment and saccharification of different feedstocks: mixed feedstocks; details: mixed feedstocks SG and eucalyptus 1:1 (FIG. 4D)
Protocol: as §1, §2

[8] = test system: Saccharomyces cerevisiae strain BY4741; test: Toxicity test: yeast growth in IL solution; assay type: cell-based
Protocol: FIG. 5A. Toxicity test of [EOA][OAc] (A) and effect of biomass loading on sugar yield (B). Conditions: yeast strain: Saccharomyces cerevisiae strain BY4741, growth condition: in 24-well microplate with orbital-high intensity shaking/31° C./in IL solution (10 g/L glucose in each IL solutions), volume of the cell culture was 0.5 mL.
For toxicity screening, a wild type S. cerevisiae BY4741 strain was technically used and it was immersed in various IL concentrations from 2.5 to 15 wt %.

cellulases = details: previous literatures; cited from earlier work
[9] = T/t 140/1, IL concentration not given
[10] = optimized conditions, short time pretreatment

## C[N+](C)(C)CCO.O=P([O-])(O)O [[Ch][H2PO4], Cholinium dihydrogen-phosphate]
pH of ILs
  pH: 4.5
pH of ILs; Table 2
  pH: 4.5
[1]; T/t 140/1, IL 20%
  Enzymatic Saccharification Glucose yield %: 17.5%
[1]; T/t 140/1, IL 50%
  Enzymatic Saccharification Glucose yield %: 16.9%
[1]; T/t 140/1, IL 100%
  Enzymatic Saccharification Glucose yield %: 14.4%

## CCCCN(CCCC)CCCC.O=P(O)(O)O [[N444][H2PO4]]
pH of ILs; Table 5
  ILs pH: 4.5
[1]; T/t 50/3
  Enzymatic Saccharification Glucose yield %: 13.4 ± 2.6%
[1]; T/t 90/3
  Enzymatic Saccharification Glucose yield %: 16.2 ± 0.6%

## Cholinium bicarbonate [[Ch][Bicarbonate]]
[1]; [9]
  Enzymatic Saccharification Glucose yield %: 52.8 ± 4.3%

## CC(=O)O.NCCO [[EOA][OAc], ethanolamine acetate]
[2]
  sugar yields: low sugar yields
[3]
  lignin content reduced by: 77%
[4]; 10% SG loading, 160 °C pretreated sample
  glucose yield: ~85%
[4]; 40 wt % starting biomass loading (60 wt % IL), diluted to 5 wt % IL in saccharification (FIG. 5B)
  glucose yield: comparative glucose yield with 20 wt % starting biomass loading
[4]; pretreatment time 0.5 hrs
  yield of glucose: 85%
  yield of xylose: 35%
[4]; pretreatment time 3 hrs
  yield of glucose: 87%
  yield of xylose: 42%
[4]; SG loading 25 wt %
  glucose yield: Around 60%
[4]; biomass loading 5 to 20 wt % at pretreatment (FIG. 4A)
  glucose yield: more than 75%
[4]; from 140 to 160 °C
  increase in digestibility of SG: over 40%
[4]; low pretreatment temperature and low enzyme loading (FIG. 3: 140 °C, 1 h, 10 mg protein per g switchgrass)
  sugar yield, IL screening: best performance
[4]; [10]
  glucose (monomers) liberated from switchgrass: 85%
  xylose (monomers) liberated from switchgrass: 35%
[4]; pretreatment 140 °C (FIG. 4B)
  digestibility of SG: 60%
[4]; pretreatment 160 °C (FIG. 4B)
  digestibility of SG: 85%
[4]; pretreatment 160 °C, 15 min
  glucose released from SG: 45%
[5]; 40 wt % SG loading at pretreatment
  theoretical ethanol yield: 70%
[5]; yeast loading 0.1 wt % (1 g/L)
  theoretical ethanol yield: around 70%
[5]; from the glucan present in 1 kg of SG
  ethanol produced: 117 g
[5]; glucan balance, FIG. 7
  overall conversion in one-pot: 70%
[5]; glucan/glucose balance, FIG. 7
  glucose from saccharification converted to ethanol: over 90%
[5]; yeast loading increased from 0.01 to 0.21 wt % (FIG. 6A)
  ethanol yield versus yeast loading: no significant difference in ethanol yield
[6]
  sugar yields: best performance
[7]
  sugar yields: low sugar yields
[8]; 5 wt % IL concentration
  yeast growth: better yeast growth
[8]; IL concentrations from 2.5 to 15 wt %, FIG. 5A
  IL titer at which better yeast growth occurs: below 10 wt %

## C[N+](C)(C)CCO.C[N+](C)(C)CCO.O=P([O-])([O-])O [[Ch]2[HPO4]]
pH of ILs
  pH: 8
[1]; T/t 140/1, IL 20%
  Enzymatic Saccharification Glucose yield %: 61.9%
[1]; T/t 140/1, IL 50%
  Enzymatic Saccharification Glucose yield %: 55.1%
[1]; T/t 140/1, IL 100%
  Enzymatic Saccharification Glucose yield %: 49.7%

## C[N+](C)(C)CCO.C[N+](C)(C)CCO.C[N+](C)(C)CCO.O=P([O-])([O-])[O-] [[Ch]3[PO4]]
pH of ILs
  pH: 12.5
[1]; T/t 140/1, IL 20%
  Enzymatic Saccharification Glucose yield %: 54.6%
[1]; T/t 140/1, IL 50%
  Enzymatic Saccharification Glucose yield %: 61.1%
[1]; T/t 140/1, IL 100%
  Enzymatic Saccharification Glucose yield %: 61.8%

## CC(=O)[O-].CCn1cc[n+](C)c1 [[C2C1Im][OAc], 1-ethyl-3-methyl imidazolium acetate]
cellulases
  IL concentration known to deactivate cellulases: ~5 wt %

## dimethylammonium dimethylcarbamate
[1]; [9]
  Enzymatic Saccharification Glucose yield %: 55.2 ± 3.9%

## CCCCn1cc[n+](C)c1.[Cl-] [[C4C1Im][Cl], 1-n-butyl-3-methylimidazolium chloride]
cellulases
  IL concentration known to deactivate cellulases: ~5 wt %

## NCCCC[C@H](N)C(=O)O.NCCO [EA-lysinate-m 1]
pH of ILs; Table 2
  pH: 9

## NCCO.O=P(O)(O)O [EA-dihydrogenphosphate]
pH of ILs; Table 2
  pH: 4.5
